Data: patent US12466812B2, “Pyridinyltriazine derivative having protein kinase inhibitory activity, and pharmaceutical composition for preventing, ameliorating, or treating cancer comprising same” (KOREA INSTITUTE OF SCIENCE AND TECHNOLOGY, priority 2019, dated 2025)

Key:
[1] = system: AN3-CA, a uterine cancer cell line; assay: Inhibitory activity against cancer cell proliferation (Experimental Example 2); type: cell-based; conditions: Homo sapiens, Table 2
[2] = system: AN3-CA; assay: Pan-FGFR mutant cellular activity; type: cell-based; conditions: Homo sapiens, mutant cell, Table 4, read-out: GI50, AN3-CA (breast cancer cell line)
Method: (§1) The inhibitory activity against pan-FGFR mutants of the compounds synthesized in Examples 1, 8, 13, 22, and 24 was measured, the inhibitory activity on each of enzymatic activity and cellular activity was evaluated, and the results are shown in Tables 3 and 4 below.

[3] = system: UMUC3 (bladder cancer cell line); assay: Pan-FGFR mutant cellular activity; type: cell-based; conditions: Homo sapiens, Table 4
Method: as §1

[4] = system: J82 (bladder cancer cell line); assay: Pan-FGFR mutant cellular activity; type: cell-based; conditions: Table 4
Method: as §1

[5] = system: KMS-11 (myeloma cell line); assay: Pan-FGFR mutant cellular activity; type: cell-based; conditions: Homo sapiens, Table 4
Method: as §1

[6] = target: FGFR3 mutant (K650M) (Homo sapiens, UniProt P22607, K650M); assay: Pan-FGFR mutant enzymatic activity; type: biochemical; conditions: mutant enzyme
Method: as §1

[7] = target: FGFR2 mutant (N549H) (Homo sapiens, UniProt P21802, N549H); assay: Pan-FGFR mutant enzymatic activity; type: biochemical; conditions: mutant enzyme
Method: as §1

[8] = target: FGFR2 mutant (V564F) (Homo sapiens, UniProt P21802, V564F); assay: Pan-FGFR mutant enzymatic activity; type: biochemical; conditions: mutant enzyme
Method: as §1

[9] = target: FGFR3 mutant (V555M) (Homo sapiens, UniProt P22607, V555M); assay: Pan-FGFR mutant enzymatic activity; type: biochemical; conditions: mutant enzyme
Method: as §1

[10] = target: FGFR3 mutant (K650E) (Homo sapiens, UniProt P22607, K650E); assay: Pan-FGFR mutant enzymatic activity; type: biochemical; conditions: mutant enzyme
Method: as §1

[11] = target: CYP2D6 (Homo sapiens, UniProt P10635); assay: Inhibitory activity against CYP metabolic enzyme; type: in vitro ADME
Method: (§2) In order to determine whether or not there is a possibility that the compounds synthesized in Examples 1, 22, and 24 of the present invention can cause side effects of drug interaction, the rate (%) of inhibition against 5 major metabolic enzymes (CYP1A2, CYP2C9, CYP2C19, CYP2D6, and CYP3A4) among CYPs (cytochrome P450), which are enzymes involved in oxidative metabolism of drugs, was measured. […] That is, it can be seen that the compound of the present invention has a low possibility of causing side effects of drug interaction.

[12] = target: T1, CYP1A2 (Homo sapiens, UniProt P05177); assay: Inhibitory activity against CYP metabolic enzyme; type: in vitro ADME
T1 sequence (P05177 1-516): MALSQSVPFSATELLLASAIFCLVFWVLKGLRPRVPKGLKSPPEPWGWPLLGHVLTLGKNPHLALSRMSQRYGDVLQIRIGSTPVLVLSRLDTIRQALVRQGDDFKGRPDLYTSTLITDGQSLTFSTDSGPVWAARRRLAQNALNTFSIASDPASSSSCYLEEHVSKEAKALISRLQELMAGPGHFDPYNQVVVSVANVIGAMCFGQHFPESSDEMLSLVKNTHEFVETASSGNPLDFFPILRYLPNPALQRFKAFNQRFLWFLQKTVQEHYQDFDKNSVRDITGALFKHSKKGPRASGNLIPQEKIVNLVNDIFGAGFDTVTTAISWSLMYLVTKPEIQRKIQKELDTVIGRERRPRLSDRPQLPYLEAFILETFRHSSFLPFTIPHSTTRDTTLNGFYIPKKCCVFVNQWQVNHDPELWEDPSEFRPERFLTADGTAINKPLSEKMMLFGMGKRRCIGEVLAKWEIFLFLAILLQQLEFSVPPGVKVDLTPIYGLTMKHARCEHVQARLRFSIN
Method: as §2

[13] = target: CYP2C19 (Homo sapiens, UniProt P33261); assay: Inhibitory activity against CYP metabolic enzyme; type: in vitro ADME
Method: as §2

[14] = target: CYP3A4 (Homo sapiens, UniProt P08684); assay: Inhibitory activity against CYP metabolic enzyme; type: in vitro ADME
Method: as §2

[15] = Microsomal stability; type: in vitro ADME; conditions: mouse liver microsomes, based on sample taken at 0 minutes
[16] = Microsomal stability; type: in vitro ADME; conditions: rat liver microsomes, based on sample taken at 0 minutes
[17] = Microsomal stability; type: in vitro ADME; conditions: human liver microsomes, based on sample taken at 0 minutes
[18] = Microsomal stability; type: in vitro ADME; conditions: dog liver microsomes, based on sample taken at 0 minutes
[19] = In-vivo PK profile (mouse PK/ICR mice); conditions: plasma, ICR mice, PO 10 mg/kg

Sequence of FGFR2 mutant (N549H) (P21802 22-821 N549H): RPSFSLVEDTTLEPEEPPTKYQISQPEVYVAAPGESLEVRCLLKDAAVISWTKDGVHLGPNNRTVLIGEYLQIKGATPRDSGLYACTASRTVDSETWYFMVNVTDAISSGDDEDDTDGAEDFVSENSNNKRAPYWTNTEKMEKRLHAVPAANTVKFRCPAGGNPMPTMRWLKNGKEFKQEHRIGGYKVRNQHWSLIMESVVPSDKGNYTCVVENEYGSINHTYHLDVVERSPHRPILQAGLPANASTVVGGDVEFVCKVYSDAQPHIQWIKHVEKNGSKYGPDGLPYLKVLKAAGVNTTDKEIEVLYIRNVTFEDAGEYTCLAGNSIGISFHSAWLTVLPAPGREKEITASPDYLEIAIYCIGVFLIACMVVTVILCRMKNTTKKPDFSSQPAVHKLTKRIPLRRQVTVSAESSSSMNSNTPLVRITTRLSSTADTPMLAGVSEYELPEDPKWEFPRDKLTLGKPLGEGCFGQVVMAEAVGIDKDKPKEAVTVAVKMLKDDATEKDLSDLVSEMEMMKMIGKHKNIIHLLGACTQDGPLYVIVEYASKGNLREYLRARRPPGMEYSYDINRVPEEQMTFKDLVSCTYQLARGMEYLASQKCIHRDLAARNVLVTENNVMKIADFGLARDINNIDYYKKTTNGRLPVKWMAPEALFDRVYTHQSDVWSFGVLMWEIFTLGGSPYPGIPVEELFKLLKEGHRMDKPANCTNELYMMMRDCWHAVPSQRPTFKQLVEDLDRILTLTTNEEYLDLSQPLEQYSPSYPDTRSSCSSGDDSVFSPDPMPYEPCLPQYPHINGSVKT
Sequence of FGFR3 mutant (K650E) (P22607 23-806 K650E): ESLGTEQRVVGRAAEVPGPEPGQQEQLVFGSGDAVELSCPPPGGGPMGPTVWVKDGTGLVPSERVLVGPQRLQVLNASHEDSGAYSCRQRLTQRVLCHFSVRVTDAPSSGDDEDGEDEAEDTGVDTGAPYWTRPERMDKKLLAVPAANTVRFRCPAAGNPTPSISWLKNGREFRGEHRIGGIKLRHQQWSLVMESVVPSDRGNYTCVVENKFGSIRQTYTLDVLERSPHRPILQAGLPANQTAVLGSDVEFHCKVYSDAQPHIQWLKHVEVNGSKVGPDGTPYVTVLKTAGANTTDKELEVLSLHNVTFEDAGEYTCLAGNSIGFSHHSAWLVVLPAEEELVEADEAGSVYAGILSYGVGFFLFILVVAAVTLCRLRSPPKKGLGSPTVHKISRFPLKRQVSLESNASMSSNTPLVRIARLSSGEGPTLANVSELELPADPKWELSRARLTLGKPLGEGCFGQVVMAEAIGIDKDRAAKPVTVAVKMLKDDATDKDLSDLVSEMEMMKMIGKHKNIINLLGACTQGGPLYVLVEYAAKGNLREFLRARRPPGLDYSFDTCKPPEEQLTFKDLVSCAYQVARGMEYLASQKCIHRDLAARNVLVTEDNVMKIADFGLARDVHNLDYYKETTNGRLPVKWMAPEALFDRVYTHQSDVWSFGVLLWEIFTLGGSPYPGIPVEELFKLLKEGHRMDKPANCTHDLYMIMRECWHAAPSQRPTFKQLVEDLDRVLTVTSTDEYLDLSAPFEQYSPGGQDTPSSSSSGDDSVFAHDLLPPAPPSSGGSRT
Sequence of FGFR2 mutant (V564F) (P21802 22-821 V564F): as the sequence (P21802 22-821 N549H) above, with H528N, V543F counted along it
Sequence of FGFR3 mutant (V555M) (P22607 23-806 V555M): as the sequence (P22607 23-806 K650E) above, with V533M, E628K counted along it
Sequence of FGFR3 mutant (K650M) (P22607 23-806 K650M): as the sequence (P22607 23-806 K650E) above, with E628M counted along it
Sequence of CYP2C19 (P33261 whole entry): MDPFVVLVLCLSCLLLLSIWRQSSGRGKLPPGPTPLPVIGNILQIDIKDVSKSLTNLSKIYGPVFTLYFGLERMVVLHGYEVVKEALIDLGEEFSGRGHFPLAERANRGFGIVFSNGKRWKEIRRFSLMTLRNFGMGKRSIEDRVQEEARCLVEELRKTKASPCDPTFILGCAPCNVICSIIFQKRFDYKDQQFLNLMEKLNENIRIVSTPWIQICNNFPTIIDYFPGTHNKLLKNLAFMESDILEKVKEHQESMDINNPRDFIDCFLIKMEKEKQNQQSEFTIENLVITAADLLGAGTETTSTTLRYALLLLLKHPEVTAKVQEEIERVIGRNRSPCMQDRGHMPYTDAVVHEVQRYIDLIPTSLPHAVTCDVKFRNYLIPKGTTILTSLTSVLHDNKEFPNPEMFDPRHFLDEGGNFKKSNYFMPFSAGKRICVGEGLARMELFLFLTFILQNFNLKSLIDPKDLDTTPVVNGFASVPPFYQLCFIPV
Sequence of CYP3A4 (P08684 whole entry): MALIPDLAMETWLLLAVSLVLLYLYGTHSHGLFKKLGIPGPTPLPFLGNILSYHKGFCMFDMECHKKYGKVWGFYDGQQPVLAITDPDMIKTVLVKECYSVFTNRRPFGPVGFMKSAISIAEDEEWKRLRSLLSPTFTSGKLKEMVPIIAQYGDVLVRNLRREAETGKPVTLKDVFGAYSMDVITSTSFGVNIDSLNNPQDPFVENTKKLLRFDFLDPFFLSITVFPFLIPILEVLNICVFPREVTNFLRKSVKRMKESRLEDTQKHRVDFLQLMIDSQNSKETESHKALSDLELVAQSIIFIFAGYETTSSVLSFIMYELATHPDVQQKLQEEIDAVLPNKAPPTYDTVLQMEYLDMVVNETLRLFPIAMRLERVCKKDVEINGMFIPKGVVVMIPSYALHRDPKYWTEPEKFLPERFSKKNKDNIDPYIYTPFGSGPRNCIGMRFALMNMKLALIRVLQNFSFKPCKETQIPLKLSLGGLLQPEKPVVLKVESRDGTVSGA
Sequence of CYP2D6 (P10635 whole entry): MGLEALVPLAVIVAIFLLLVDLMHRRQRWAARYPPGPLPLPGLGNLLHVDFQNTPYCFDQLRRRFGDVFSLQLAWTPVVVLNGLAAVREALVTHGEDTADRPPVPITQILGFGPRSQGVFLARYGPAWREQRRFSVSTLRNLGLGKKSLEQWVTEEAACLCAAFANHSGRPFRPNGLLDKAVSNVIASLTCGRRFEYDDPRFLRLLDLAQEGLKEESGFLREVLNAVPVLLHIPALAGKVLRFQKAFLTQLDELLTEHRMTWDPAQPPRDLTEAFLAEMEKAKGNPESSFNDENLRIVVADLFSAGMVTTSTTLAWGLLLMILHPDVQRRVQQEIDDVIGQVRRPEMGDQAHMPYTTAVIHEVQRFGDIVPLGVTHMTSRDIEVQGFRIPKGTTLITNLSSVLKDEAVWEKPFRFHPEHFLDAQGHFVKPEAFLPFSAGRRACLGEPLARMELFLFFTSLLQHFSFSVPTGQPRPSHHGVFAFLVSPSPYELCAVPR

Compound: COc1cc(OC)c(Cl)c(Nc2ncccc2-c2ncnc(N)n2)c1Cl [Example 2, 4-(2-((2,6-dichloro-3,5-dimethoxyphenyl)amino)pyridin-3-yl)-1,3,5-triazin-2-amine]
- GI50 [1]: < 1 µM

Compound: COc1cc(OC)c(Cl)c(Nc2ncccc2-c2ncnc(NCCN(C)C)n2)c1Cl [Example 3, N^1-(4-(2-((2,6-dichloro-3,5-dimethoxyphenyl)amino)pyridin-3-yl)-1,3,5-triazin-2-yl)-N^2,N^2-dimethylethane-1,2-diamine]
- GI50 [1]: 1 to 10 µM

Compound: COc1cc(OC)c(Cl)c(Nc2ncccc2-c2ncnc(Nc3ccccc3)n2)c1Cl [Example 4, 4-(2-((2,6-dichloro-3,5-dimethoxyphenyl)amino)pyridin-3-yl)-N-phenyl-1,3,5-triazin-2-amine]
- GI50 [1]: < 1 µM

Compound: COc1ccccc1Nc1ncnc(-c2cccnc2Nc2c(Cl)c(OC)cc(OC)c2Cl)n1 [Example 5]
- GI50 [1]: 1 to 10 µM

Compound: COc1cccc(Nc2ncnc(-c3cccnc3Nc3c(Cl)c(OC)cc(OC)c3Cl)n2)c1 [Example 6]
- GI50 [1]: < 1 µM

Compound: COc1cc(OC)c(Cl)c(Nc2ncccc2-c2ncnc(Nc3ccc(N(C)C)cc3)n2)c1Cl [Example 7, N^1-(4-(2-((2,6-dichloro-3,5-dimethoxyphenyl)amino)pyridin-3-yl)-1,3,5-triazin-2-yl)-N^4,N^4-dimethylbenzene-1,4-diamine]
- GI50 [1]: < 1 µM

Compound: CCN1CCN(c2cccc(Nc3ncnc(-c4cccnc4Nc4c(Cl)c(OC)cc(OC)c4Cl)n3)c2)CC1 [Example 8]
- GI50 [1]: < 1 µM
- GI50 [2]: < 1 µM
- GI50 [3]: 1 to 10 µM
- GI50 [4]: 1 to 10 µM
- GI50 [5]: < 1 µM
- IC50 [6]: < 0.1 µM
- IC50 [7]: < 0.1 µM
- IC50 [8]: 0.1 to 1 µM
- IC50 [9]: 0.1 to 1 µM
- IC50 [10]: < 0.1 µM

Compound: COc1cc(OC)c(Cl)c(Nc2ncccc2-c2ncnc(Nc3ccc(N4CCOCC4)cc3)n2)c1Cl [Example 9]
- GI50 [1]: 1 to 10 µM

Compound: COc1cc(OC)c(Cl)c(Nc2ncccc2-c2ncnc(Nc3ccc(N4CCOCC4)nc3)n2)c1Cl [Example 10]
- GI50 [1]: < 1 µM

Compound: COc1cc(OC)c(Cl)c(Nc2ncccc2-c2ncnc(Nc3ccc(N4CCN(C(C)=O)CC4)cc3)n2)c1Cl [Example 11, 1-(4-(4-((4-(2-((2,6-dichloro-3,5-dimethoxyphenyl)amino)pyridin-3-yl)-1,3,5-triazin-2-yl)amino)phenyl)piperazin-1-yl)ethan-1-one]
- GI50 [1]: < 1 µM

Compound: COc1cc(OC)c(Cl)c(Nc2ncccc2-c2ncnc(Nc3ccc(N4CCC(O)CC4)cc3)n2)c1Cl [Example 12]
- GI50 [1]: < 1 µM

Compound: COc1cc(OC)c(Cl)c(Nc2ncccc2-c2ncnc(Nc3ccc(N4C[C@@H](C)N[C@@H](C)C4)cc3)n2)c1Cl [Example 13]
- GI50 [1]: < 1 µM
- GI50 [2]: < 1 µM
- GI50 [3]: 1 to 10 µM
- GI50 [4]: < 1 µM
- GI50 [5]: < 1 µM
- IC50 [6]: < 0.1 µM
- IC50 [7]: < 0.1 µM
- IC50 [8]: 0.1 to 1 µM
- IC50 [9]: 0.1 to 1 µM
- IC50 [10]: < 0.1 µM

Compound: COc1cc(N2CCN(C)CC2)ccc1Nc1ncnc(-c2cccnc2Nc2c(Cl)c(OC)cc(OC)c2Cl)n1 [Example 14]
- GI50 [1]: < 1 µM

Compound: COc1cc(N2CCOCC2)ccc1Nc1ncnc(-c2cccnc2Nc2c(Cl)c(OC)cc(OC)c2Cl)n1 [Example 15]
- GI50 [1]: > 10 µM

Compound: COc1cc(OC)c(Cl)c(Nc2ncccc2-c2ncnc(Nc3ccc(N4CCOCC4)nc3OC)n2)c1Cl [Example 16]
- GI50 [1]: > 10 µM

Compound: COc1cc(N2C[C@@H](C)N[C@@H](C)C2)ccc1Nc1ncnc(-c2cccnc2Nc2c(Cl)c(OC)cc(OC)c2Cl)n1 [Example 17]
- GI50 [1]: < 1 µM

Compound: COc1cc(OC)c(Cl)c(Nc2ncccc2-c2ncnc(Nc3cnn(C)c3)n2)c1Cl [Example 18]
- GI50 [1]: < 1 µM

Compound: C=CCn1cc(Nc2ncnc(-c3cccnc3Nc3c(Cl)c(OC)cc(OC)c3Cl)n2)cn1 [Example 19, N-(1-allyl-1H-pyrazol-4-yl)-4-(2-((2,6-dichloro-3,5-dimethoxyphenyl)amino)pyridin-3-yl)-1,3,5-triazin-2-amine]
- GI50 [1]: > 10 µM

Compound: COc1cc(OC)c(Cl)c(Nc2ncccc2-c2ncnc(Nc3cnn(CCCN(C)C)c3)n2)c1Cl [Example 20, 4-(2-((2,6-dichloro-3,5-dimethoxyphenyl)amino)pyridin-3-yl)-N-(1-(3-(dimethylamino)propyl)-1H-pyrazol-4-yl)-1,3,5-triazin-2-amine]
- GI50 [1]: < 1 µM

Compound: COc1cc(OC)c(Cl)c(Nc2ncccc2-c2ncnc(Nc3cnn(C4CCOCC4)c3)n2)c1Cl [Example 21, 4-(2-((2,6-dichloro-3,5-dimethoxyphenyl)amino)pyridin-3-yl)-N-(1-(tetrahydro-2H-pyran-4-yl)-1H-pyrazol-4-yl)-1,3,5-triazin-2-amine]
- GI50 [1]: < 1 µM

Compound: COc1cc(OC)c(Cl)c(Nc2ncccc2-c2ncnc(Nc3cnn(C4CCN(C(=O)OC(C)(C)C)CC4)c3)n2)c1Cl [Example 23, Tert-butyl 4-(4-((4-(2-((2,6-dichloro-3,5-dimethoxyphenyl)amino)pyridin-3-yl)-1,3,5-triazin-2-yl)amino)-1H-pyrazol-1-yl) piperidine-1-carboxylate]
- GI50 [1]: < 1 µM

Compound: COc1cc(OC)c(Cl)c(Nc2ncccc2-c2ncnc(Nc3cnn(C4CCNCC4)c3)n2)c1Cl [Example 24, 4-(2-((2,6-dichloro-3,5-dimethoxyphenyl)amino)pyridin-3-yl)-N-(1-(piperidin-4-yl)-1H-pyrazol-4-yl)-1,3,5-triazin-2-amine]
- rate (%) of inhibition, CYP2D6 [11]: >100%
- rate (%) of inhibition, CYP1A2 [12]: 72.8%
- rate (%) of inhibition, CYP2C19 [13]: 51.0%
- rate (%) of inhibition, CYP3A4 [14]: 44.1%
- remaining (%) after reaction with the microsome, Mouse [15]: 62.1%
- remaining (%) after reaction with the microsome, Mouse ([15]; listed as Compound No. 24): 62.1%
- GI50 [1]: < 1 µM
- remaining (%) after reaction with the microsome, Rat [16]: 65.4%
- remaining (%) after reaction with the microsome, Rat ([16]; listed as Compound No. 24): 65.43%
- remaining (%) after reaction with the microsome, Human [17]: 62.6%
- remaining (%) after reaction with the microsome, Human ([17]; listed as Compound No. 24): 62.6%
- GI50 [2]: < 1 µM
- GI50 [3]: 1 to 10 µM
- GI50 [4]: 1 to 10 µM
- GI50 [5]: < 1 µM
- remaining (%) after reaction with the microsome, Dog [18]: 66.9%
- remaining (%) after reaction with the microsome, Dog ([18]; listed as Compound No. 24): 66.9%
- Cmax [19]: 153 ng/mL
- MRT inf [19]: 7.94 h
- Tmax [19]: 0.42 h
- half-life [19]: 4.83 h
- IC50 [6]: < 0.1 µM
- IC50 [7]: < 0.1 µM
- IC50 [8]: 0.1 to 1 µM
- IC50 [9]: 0.1 to 1 µM
- IC50 [10]: < 0.1 µM
